Values of other authors, collected in US20110166946A1, “METHOD OF PROMOTING AND SELLING COFFEE” (NESTEC S.A., priority 2008, published 2011).

Assays:
[1] = after 50 μM chlorogenic acid intestinal perfusion, rat
[2] = preclinical models
[3] = in vivo

SMILES	isoferulic acid detected in plasma [1]	time of appearance of conjugated forms of CA in plasma after ingestion [2]	time of appearance in blood after ingestion [3]	time to reach baseline level after ingestion [3]
O=C(/C=C/c1ccc(O)c(O)c1)O[C@@H]1C[C@](O)(C(=O)O)C[C@@H](O)[C@H]1O [chlorogenic acid, 5-caffeoylquinic acid]	0.12 µM	30 min		
Oc1cc(O)c2c(c1)O[C@H](c1cc(O)c(O)c(O)c1)[C@H](O)C2 [EGC, (−)-Epigallocatechin]			≤ 30 min	≤ 12 h
